# Legend:
# [1] = test system: osteoporosis patients having normal renal function, mild or moderate renal dysfunction; settings: in vivo
# [2] = in vivo
# Procedure: The serum calcium was measured at the start, after 12 weeks, after 24 weeks, after 48 weeks, and after 72 weeks. Serum calcium standard value: 8.4 to 10.4 mg/dL. The standard concomitant drug (610 mg of calcium, 400 IU of vitamin D3, and 30 mg of magnesium) was taken once a day after dinner from the time of consent to the end of the trial.
# [3] = test system: osteoporosis patients having normal renal function, mild or moderate renal dysfunction; settings: in vivo; remark: listed apart in the source
# Excerpt: The incidence of adverse events was studied after administering the test drug to the a group of osteoporosis patients having normal renal function, a group of osteoporosis patients having mild renal dysfunction, and a group of osteoporosis patients having moderate renal dysfunction.
# [4] = test system: high-risk patients diagnosed with primary osteoporosis; experiment: Working Example 2: bone density of lumbar spine and femur by DXA; assay type: in vivo, human; settings: 200 units weekly
# Procedure: For the bone density of the femur, only the left side of the proximal part of the femur, rotated 20°, was measured at the start and every 24 weeks thereafter using dual-energy x-ray absorptiometry (DXA).
# [5] = history of calcium L-aspartate, 24 W
# [6] = history of calcium L-aspartate, 48 W
# [7] = history of calcium L-aspartate, 72 W
# [8] = history of calcium lactate, 24 W
# [9] = history of calcium lactate, 48 W
# [10] = history of calcium lactate, 72 W
# [11] = history of raloxifene hydrochloride, 24 W
substance,measurement,setting,value
teriparatide acetate,Side effects Yes (%),[1],36.8%
same,"Side effects, point estimate of the difference",[1],29.1
same,Side effects: No (%),[1],55.1%
same,"Side effects: No, No. of cases",[1],27
same,Side effects: Yes (%),[1],44.9%
same,"Side effects: Yes, No. of cases",[1],22
same,"Corrected serum calcium value after administration, maximum",[2],11.6 mg/dL
same,"Corrected serum calcium value, range of the average",[2],9.3 to 9.6 mg/dL
same,"Corrected serum calcium, Mean",[2],9.5 mg/dL
same,"Corrected serum calcium, Median",[2],9.5 mg/dL
same,Manifestation of hypercalcemia or hypercalciuria,[2],No manifestation of hypercalcemia or hypercalciuria was found
same,Safety in terms of the serum calcium (corrected serum calcium vs control),[2],equivalent safety in terms of the serum calcium in all groups
same,Adverse events: point estimate of the difference (PTH200 group vs P group),[3],2.0
same,"Percentage change in bone density (%), lumbar spine","[4]; history of Alfacalcidol, 24 W",3.11%
same,"Percentage change in bone density (%), neck of femur","[4]; history of Alfacalcidol, 24 W",1.64%
same,"Percentage change in bone density (%), proximal femur","[4]; history of Alfacalcidol, 24 W",2.77%
same,"Percentage change in bone density (%), lumbar spine","[4]; history of Alfacalcidol, 48 W",5.47%
same,"Percentage change in bone density (%), neck of femur","[4]; history of Alfacalcidol, 48 W",0.85%
same,"Percentage change in bone density (%), proximal femur","[4]; history of Alfacalcidol, 48 W",2.31%
same,"Percentage change in bone density (%), lumbar spine","[4]; history of Alfacalcidol, 72 W",6.47%
same,"Percentage change in bone density (%), neck of femur","[4]; history of Alfacalcidol, 72 W",2.19%
same,"Percentage change in bone density (%), proximal femur","[4]; history of Alfacalcidol, 72 W",2.31%
same,"Percentage change in bone density (%), lumbar spine","[4]; history of calcitriol, 24 W",3.50%
same,"Percentage change in bone density (%), neck of femur","[4]; history of calcitriol, 24 W",−0.60%
same,"Percentage change in bone density (%), proximal femur","[4]; history of calcitriol, 24 W",−1.40%
same,"Percentage change in bone density (%), lumbar spine","[4]; history of calcitriol, 48 W",4.40%
same,"Percentage change in bone density (%), neck of femur","[4]; history of calcitriol, 48 W",−4.03%
same,"Percentage change in bone density (%), proximal femur","[4]; history of calcitriol, 48 W",−1.05%
same,"Percentage change in bone density (%), lumbar spine","[4]; history of calcitriol, 72 W",6.38%
same,"Percentage change in bone density (%), neck of femur","[4]; history of calcitriol, 72 W",−3.53%
same,"Percentage change in bone density (%), proximal femur","[4]; history of calcitriol, 72 W",−0.04%
same,"Percentage change in bone density (%), lumbar spine",[4]; [5],3.78%
same,"Percentage change in bone density (%), neck of femur",[4]; [5],1.44%
same,"Percentage change in bone density (%), proximal femur",[4]; [5],1.76%
same,"Percentage change in bone density (%), lumbar spine",[4]; [6],6.16%
same,"Percentage change in bone density (%), neck of femur",[4]; [6],1.88%
same,"Percentage change in bone density (%), proximal femur",[4]; [6],2.28%
same,"Percentage change in bone density (%), lumbar spine",[4]; [7],5.85%
same,"Percentage change in bone density (%), neck of femur",[4]; [7],4.17%
same,"Percentage change in bone density (%), proximal femur",[4]; [7],3.69%
same,"Percentage change in bone density (%), lumbar spine",[4]; [8],1.96%
same,"Percentage change in bone density (%), neck of femur",[4]; [8],0.30%
same,"Percentage change in bone density (%), proximal femur",[4]; [8],1.78%
same,"Percentage change in bone density (%), lumbar spine",[4]; [9],3.45%
same,"Percentage change in bone density (%), neck of femur",[4]; [9],−4.35%
same,"Percentage change in bone density (%), proximal femur",[4]; [9],−1.68%
same,"Percentage change in bone density (%), lumbar spine",[4]; [10],4.93%
same,"Percentage change in bone density (%), neck of femur",[4]; [10],−2.53%
same,"Percentage change in bone density (%), proximal femur",[4]; [10],−3.20%
same,"Percentage change in bone density (%), lumbar spine","[4]; history of elcatonin, 24 W",3.95%
same,"Percentage change in bone density (%), neck of femur","[4]; history of elcatonin, 24 W",1.62%
same,"Percentage change in bone density (%), proximal femur","[4]; history of elcatonin, 24 W",3.86%
same,"Percentage change in bone density (%), lumbar spine","[4]; history of elcatonin, 48 W",3.59%
same,"Percentage change in bone density (%), neck of femur","[4]; history of elcatonin, 48 W",0.72%
same,"Percentage change in bone density (%), proximal femur","[4]; history of elcatonin, 48 W",3.44%
same,"Percentage change in bone density (%), lumbar spine","[4]; history of elcatonin, 72 W",5.36%
same,"Percentage change in bone density (%), neck of femur","[4]; history of elcatonin, 72 W",3.15%
same,"Percentage change in bone density (%), proximal femur","[4]; history of elcatonin, 72 W",4.41%
same,"Percentage change in bone density (%), lumbar spine","[4]; history of menatetrenone, 24 W",2.70%
same,"Percentage change in bone density (%), neck of femur","[4]; history of menatetrenone, 24 W",0.72%
same,"Percentage change in bone density (%), proximal femur","[4]; history of menatetrenone, 24 W",0.60%
same,"Percentage change in bone density (%), lumbar spine","[4]; history of menatetrenone, 48 W",3.04%
same,"Percentage change in bone density (%), neck of femur","[4]; history of menatetrenone, 48 W",−3.18%
same,"Percentage change in bone density (%), proximal femur","[4]; history of menatetrenone, 48 W",−0.56%
same,"Percentage change in bone density (%), lumbar spine","[4]; history of menatetrenone, 72 W",4.32%
same,"Percentage change in bone density (%), neck of femur","[4]; history of menatetrenone, 72 W",−0.78%
same,"Percentage change in bone density (%), proximal femur","[4]; history of menatetrenone, 72 W",−1.40%
same,"Percentage change in bone density (%), lumbar spine",[4]; [11],1.77%
same,"Percentage change in bone density (%), neck of femur",[4]; [11],0.21%
